“Also recorded” adds a separate entry of the source.
Assays:
[1] = test system: KK^Ay mice; test: Effects of Wacao saponins on glycemia in KK^Ay T2DM mice (Example 2); type: in vivo
Description: 80 male KK^Ay mice (12 weeks of age, License NO. SCXK (BJ) 2009-0015, Beijing Huafukang Biology Technology Co. Ltd.) and 10 male normal C57BL/6 mice (12 weeks of age, License NO. SCXK (BJ) 2009-0015, Beijing Huafukang Biology Technology Co. Ltd.) were adaptively bred for one week, and then used in the pharmacological experiment.
The animals were housed individually in wood-chip-bedded plastic cages. Germ-free and high-fat diets (Beijing Huafukang Biology Technology Co. Ltd.) were used to feed the KK^Ay mice, and the standard laboratory chows were used to feed normal C57BL/6 mice. All the animals had free access to food and water.
80 KK^Ay mice were adaptively bred for 1 week, and then randomly assigned into 8 groups: Model group, Compound (1) group, Compound (2) group, Compound (3) group, Compound (4) group, Compound (7) group, Compound (8) group and metformin group, 10 mice per group. 10 normal C57BL/6 mice were used as the control group. KK^Ay mice were fed with the high-fat diet, and the control group was fed with the normal control diet. The control and model groups were hypodermically injected with sterile water, 6 medicated groups were hypodermically injected with 6 kinds of Wacao saponins, the Compounds (1), (2), (3), (4), (7) and (8), and the positive group (metformin group) was irrigated per oral. All groups were administrated at 9 am for 2 weeks. The administrating volume is 10 ml/kg BW and the administration dosage is shown in Table3.
All mice of the fasting tail blood glucose level were measured weekly using One Touch ULTRA Glucometer (Life Scan Johnson and Johnson, USA).
Each compound of Wacao saponins was dissolved into sterile water and sterilized with filtration for Sc. The metformin was dissolved into sterile water for lg. The control and model group mice were injected with sterile water, Sc. All the animals were treated at 9 am for 2 weeks.
Overnight fasting tail blood glucose level was measured weekly using One Touch ULTRA Glucometer and measured for twice.
Each group was administrated for 2 weeks (14 days) and then the experiment was terminated.
Results are expressed as means±SD. Statistical analysis were analyzed by using SPSS 10.0 software. Data were evaluated with analysis of variance.

[2] = test system: KK^Ay mice; test: Hepatic and muscle glycogen in KK^Ay mice (Example 3); type: in vivo; details: 2.0 mg/kg Sc
Description: 60 KK^Ay mice were adaptively bred for 1 week, and then randomly assigned into 6 groups: Model group, Compound (1) group, Compound (2) group, Compound (3) group, Compound (4) group, and metformin group, 10 mice per group. 10 normal C57BL/6 mice were used for the control group. KK^Ay mice were in a high-fat diet, and the control normal mice were in a normal control diet. The control and model groups were hypodermically injected with sterile water, the 6 medicated groups mice were subcutaneously injected with […] Wacao saponins, (Compounds (1), (2), (3) and (4)) respectively, and the positive group was administered metformin by gavage. All mice were administrated at 9 am for 2 weeks and the administration volume is 10 ml/kg BW.
The body weight, food and water intake of each mouse was measured and recorded weekly throughout the course of the experiment. At the end of the experiment, collected the blood and separated serum, fasting blood glucose, insulin levels and insulin sensitivity index (ISI) were measured or calculated in each group. Liver, skeletal muscles of mice in each group were taken and weighed for detecting glycogen levels of the hepatic and muscles after mice being killed.
Compound (1), (2), (3) and (4) were respectively dissolved into sterile water, and sterilized with filtration for Sc. to the medication groups. The metformin was dissolved into sterile water for lg. to the positive control group. Control and model groups animals were injected with sterile water (10 ml/kg BW), Sc. All the animals were treated daily at 9 am for 2 weeks (14 days).
Blood detection: Blood glucose was measured weekly. Overnight fasting glycemia level was measured with One Touch ULTRA Glucometer for the tail blood test. At the end of the experiment, blood serum was collected for measuring levels of fasting blood glucose and insulin, and the insulin sensitivity index (ISI) was calculated. At the same time, hepatic tissues and skeletal muscles of mice were taken out to determine levels of hepatic and muscle glycogen by detection kits.

[3] = test system: T2DM rats; test: Fasting glycemia in T2DM model rats (high-fat emulsion + STZ, Example 5); type: in vivo, SD rats
Description: 50 male SD rats (180-200 g, License NO. SCXK (BJ) 2011-0004, Beijing SPF Experimental Animal Technology Co. Ltd.) were adaptively bred for 1 week, and then used in the pharmacological experiment.
Animals were housed individually in wood-chip-bedded plastic cages and fed a standard laboratory chow. All the animals had ad libitum access to food and water.
(§1) 50 SD rats were adaptively bred for 1 week, and then randomly assigned into 5 groups: The control group, model group, Compound (1) group, Compound (2) group and glucobay group (the positive group), 10 rats per group. All the animals were in a standard laboratory diet. Control and model group animals were hypodermically injected with sterile water, test compound treatment groups were subcutaneously injected with the Compounds (1) and (2), and the positive group was administrated glucobay solution by gavage. All the animals were administrated at 9 am for 2 weeks, and the dose volume is 10 ml/kg BW.
(§2) The Compounds (1) and (2) were dissolved into sterile water, and sterilized with filtration, Sc. Glucobay was dissolved into sterile water, lg. Animals in the control and model groups were injected with sterile water (10 ml/kg BW), Sc. All the animals were treated at 9 am for 2 weeks (14 days).
(§3) All rats except the control group were administrated intragastrically with the high-fat emulsion (10 ml/kg) and weighed the body weight weekly. After weeks of administration, rats were intraperitoneally injected with streptozotocin (STZ, dissolved in citric acid-citrate sodium solution, pH 4.2, freshly prepared and used instantly, and store away from light) (30mg/kg). 4 days later, blood glucose level in rats was measured by tail blood test. Diabetes was defined as fasting blood glucose level>11.1 mmol/Lin in this experiment.
The blood glucose level was measured before and after administration of the treatment compounds for 2 weeks, respectively. The animals were fasted overnight and tail blood samples were taken. Fasting glycemia was measured by using One Touch ULTRA Glucometer or kits.

[4] = test system: T2DM rats; test: Glycosylated serum protein (GSP) and liver and muscle glycogen in T2DM rats (Example 5); type: in vivo, SD rats; details: 4.0 mg/kg Sc vs glucobay 20 mg/kg lg
Description: as §1, §2
as §3, with “Diabetes was defined as fasting blood glucose level>11.1 mmol/Lin in this experiment.” left out

## CC(=O)OC1C(OC(=O)/C=C/c2ccc(C)cc2)C(C)OC(OC(=O)[C@]23CCC(C)(C)C[C@H]2C2C=C[C@@H]4[C@@]5(C)CC[C@H](OC6OC(C(=O)O)C(O)C(OC7OCC(O)C(O)C7O)C6OC6OC(CO)C(O)C(O)C6O)[C@@](C)(C=O)[C@@H]5CC[C@@]4(C)[C@]2(C)C[C@H]3O)C1OC1OC(C)C(O)C(O)C1O (stereo partly shown) [Compound (1), sinocrassuloside VI]
[1]; 2.0 mg/kg BW Sc daily, after 1 week, vs model group
  glycemia (fasting tail blood glucose), hypoglycemic activity: best hypoglycemic activity
[1]; 2.0 mg/kg BW Sc, 2 weeks, ranking
  anti-hyperglycemia effect, compounds compared with each other: strongest anti-hyperglycemia effect
[2]; 2 weeks, comparison among compounds and with metformin, 2 mg/kg
  enhancement of glycogen storage: strongest activity of the function; also recorded: almost comparable to metformin
[2]; after 2 weeks, vs model group
  muscle glycogen level: stronger efficacy in raising levels muscle glycogen
[3]; 4.0 mg/kg Sc vs glucobay 20 mg/kg lg, 2 weeks
  anti-hyperglycemia efficacy compared with glucobay: much stronger than that of the glucobay
[3]; 4.0 mg/kg Sc, after 2 weeks, vs model group
  glycemia level: significantly decreased
[4]
  effect on glycogen levels and GSP levels compared with glucobay: better effect on up-regulating of glycogen levels and down-regulating of GSP levels; also recorded: superior to that of glucobay; also recorded: stronger than glucobay
